“Also recorded” adds a separate entry of the source.
Assays:
[1] = tested on: cardiomyocytes isolated from hearts of SHAM mice; experiment: Cardiomyocyte contractility (fractional shortening, % FS), SHAM cardiomyocytes; format: cell-based, mouse
Protocol: (§1) Cardiomyocytes were isolated freshly from cardiac ventricles separately from SHAM and HF mice following the protocol developed by the Alliance for Cellular Signalling (AfCS Procedure Protocol ID PP00000125). From each of the 5 SHAM and 3 HF hearts a cell suspension was made and divided into 10 aliquots each, for a total of 50 aliquots from SHAM and 30 aliquots from HF hearts. These aliquots were treated with vehicle, AC01/HM01 or D-Lys3-GHPR-6+AC01/HM01 as stated and used for the subsequent physiological and biochemical experiments.
AC01/HM01 was suspended in phosphate buffer saline solution (PBS: in mM: NaCl 137, KCl 7, Na2HPO4 10, KH2PO4 […]) and diluted to obtain 3 different concentrations: 0.2, 0.5 or 1 μM in Tyrode solution. We used a concentration range within 0.2-1 μM to ensure that the receptor was activated. […] Prior to contractility and Ca^2+ signaling measurements and biochemical assays, cardiomyocyte suspensions from SHAM and HF hearts were randomized to 3 types of treatments: vehicle, AC01/HM01, or D-Lys3-GHPR-6+AC01/HM01. The treatment with different agents occurred for 15 minutes at room temperature. Some cell suspension aliquots were flash frozen in liquid N2 and stored at −80° C. for later biochemistry analyses. All the experiments were conducted blinded regarding the treatment of cardiomyocytes.
Fresh isolated cardiomyocytes were aliquoted in 1.5 mL tubes and incubated with a cell permeable form of the fluorescent Ca^2+ indicator Fluo-3 AM for approximately 20 minutes followed by washing for >5 min. The cells were plated on laminin coated glass bottom dishes (35 mm, Mattek, Ashland, MA, USA), and then mounted in a custom built perfusion/stimulation chamber. Cells were continuously perfused with O2/CO2 (95/5%) bubbled Tyrode solution with the following composition (in mM): NaCl 121, KCl 5.0, CaCl2 1.8, MgCl2 0.5, NaH2PO4 0.4, NaHCO3 24, EDTA 0.1, glucose 5.5, which represents the vehicle solution.
15 aliquots of cardiomyocyte suspension from SHAM and 9 aliquots from HF were randomized to different treatments: vehicle, AC01/HM01 (0.2, 0.5 or 1 μM) or pretreatment with D-Lys3-GHPR-6 (3 μM) followed by AC01/HM01 (1 μM). The cardiomyocytes were electrically stimulated to contract at 1 Hz with supra-threshold voltage using two platinum electrodes attached to the perfusion/stimulation chamber.
(§2) Line scan fluorescence images were acquired using a confocal microscope (Biorad; 40× oil immersion lenses). […] ImageJ software (open source software developed by NIH, Bethesda, USA) was used to quantify changes in fluorescence (Ca^2+ transients) and contractility of single cardiomyocytes.
(§3) The contractility of cardiomyocytes was measured as the percent of length shortening (fractional shortening; % FS). […]

[2] = tested on: cardiomyocytes isolated from hearts of heart failure (HF) mice; experiment: Cardiomyocyte contractility (fractional shortening, % FS), heart failure (MI) cardiomyocytes; format: cell-based, mouse; settings: 1 μM
Protocol: as §1
AC01/HM01 was suspended in phosphate buffer saline solution (PBS: in mM: NaCl 137, KCl 7, Na2HPO4 10, KH2PO4 […]) and diluted to obtain 3 different concentrations: 0.2, 0.5 or 1 μM in Tyrode solution. We used a concentration range within 0.2-1 μM to ensure that the receptor was activated. […]
as §2, §3

[3] = tested on: prolactin; experiment: Phase 1 SAD pharmacodynamics, serum prolactin (ELISA); format: in vivo, human
Protocol: (§4) Blood samples for determination of growth hormone (GH), insulin-like growth factor-1 (IGF-1), adrenocorticotropic hormone (ACTH), prolactin, cortisol and aldosterone in serum at pre-dose and 0.5, 1, 2, 3, 4, 6 and 24 hours post-dose were collected by venous puncture. All biomarkers were determined using enzyme linked immunosorbent assays (ELISA). Simplified nutritional appetite questionnaire based on appetite assessments at Day −1 after dinner, and on Day 1 pre-dose, 1, 2, 4, 8, and 24 hours after dosing. Stool diary starting on Day 1 until discharge on Day 4.

[4] = Phase 1 SAD, simplified nutritional appetite questionnaire; format: in vivo, human; settings: 0.1-10 mg
Protocol: as §4

## COc1ccc([C@H](C)NC(=O)N(C)[C@@H]2CCN(C)CC2(C)C)c(Cl)c1Cl.Cl [AC01/HM01, 1-[(1S)-1-(2,3-dichloro-4-methoxyphenyl)ethyl]-3-methyl-3-[(4R)-1-methyl-3,3-dimethyl-4-piperidyl]-urea]
[1]; 0.5 μM
  contractility, fractional shortening (FS %) vs vehicle: considerable and statistically significant response
[1]; 1 μM
  contractility, fractional shortening (FS %) vs vehicle: considerable and statistically significant response; also recorded: significant increase of contractility; also recorded: greatest contractile effect compared to vehicle; also recorded: positively responded
[1]; 0.2, 0.5 and 1 μM vs vehicle, 1 Hz stimulation
  contractility, length fractional shortening (FS %), concentration dependence: increased in a dose-dependent manner; also recorded: dose-dependent increase
[2]
  contractility, fractional shortening (FS %) vs vehicle: significant increase of contractility; also recorded: positively responded
[3]; 10 mg vs 1.0 mg
  prolactin increase, comparison of doses: higher after 10 mg compared to 1.0 mg
[3]; 1.0 and 10 mg HM01
  concentrations of prolactin: rapidly increased above baseline values
[4]
  appetite questionnaire, dose groups vs placebo: no relevant or consistent differences

Reference: patent US12648941B2, “Piperidine urea derivatives for use as inotropic agents” (Helsinn Healthcare SA, priority 2021, dated 2026)
